One test has as its target NMDA receptors. To be noted: cited from earlier work.
Test [1] addresses AMPA receptors. To be noted: read-out: Ki [3H]AMPA; rat cortical synaptosomes; ref Clausen et al 14; cited from earlier work.
The target of test [2] is KA receptors. To be noted: cited from earlier work; for Ki [3H]KA: rat cortical synaptosomes, ref Clausen et al 14.
A further test concerns the target GluN1/GluN2D (Rattus norvegicus, UniProt Q62645). Kind of test: Two-electrode voltage-clamp, Xenopus oocytes expressing GluN1/GluN2D. In kind it is cell-based. To be noted: EC50 GluN2A vs GluN2D. In general terms: Two-electrode voltage clamp is typically applied to oocytes expressing channels or transporters.
The test system of test [3] is KA receptors. Kind of test: [3H]KA radioligand binding, rat cortical synaptosomes. Particulars: at a concentration of 100 μM.
Test [4] relates to AMPA receptors. Kind of test: [3H]AMPA radioligand binding, rat cortical synaptosomes. To be noted: at a concentration of 100 μM.

Broadly, the pKi is the Ki on a negative log10 scale, so that one unit is a factor of ten. The term pKd denotes −log10 of the Kd, conventionally taken in molar units.

pKd, pKi: −log10 of the molar value.

Chain of GluN1/GluN2D (Q62645 28-1323, other chains not shown): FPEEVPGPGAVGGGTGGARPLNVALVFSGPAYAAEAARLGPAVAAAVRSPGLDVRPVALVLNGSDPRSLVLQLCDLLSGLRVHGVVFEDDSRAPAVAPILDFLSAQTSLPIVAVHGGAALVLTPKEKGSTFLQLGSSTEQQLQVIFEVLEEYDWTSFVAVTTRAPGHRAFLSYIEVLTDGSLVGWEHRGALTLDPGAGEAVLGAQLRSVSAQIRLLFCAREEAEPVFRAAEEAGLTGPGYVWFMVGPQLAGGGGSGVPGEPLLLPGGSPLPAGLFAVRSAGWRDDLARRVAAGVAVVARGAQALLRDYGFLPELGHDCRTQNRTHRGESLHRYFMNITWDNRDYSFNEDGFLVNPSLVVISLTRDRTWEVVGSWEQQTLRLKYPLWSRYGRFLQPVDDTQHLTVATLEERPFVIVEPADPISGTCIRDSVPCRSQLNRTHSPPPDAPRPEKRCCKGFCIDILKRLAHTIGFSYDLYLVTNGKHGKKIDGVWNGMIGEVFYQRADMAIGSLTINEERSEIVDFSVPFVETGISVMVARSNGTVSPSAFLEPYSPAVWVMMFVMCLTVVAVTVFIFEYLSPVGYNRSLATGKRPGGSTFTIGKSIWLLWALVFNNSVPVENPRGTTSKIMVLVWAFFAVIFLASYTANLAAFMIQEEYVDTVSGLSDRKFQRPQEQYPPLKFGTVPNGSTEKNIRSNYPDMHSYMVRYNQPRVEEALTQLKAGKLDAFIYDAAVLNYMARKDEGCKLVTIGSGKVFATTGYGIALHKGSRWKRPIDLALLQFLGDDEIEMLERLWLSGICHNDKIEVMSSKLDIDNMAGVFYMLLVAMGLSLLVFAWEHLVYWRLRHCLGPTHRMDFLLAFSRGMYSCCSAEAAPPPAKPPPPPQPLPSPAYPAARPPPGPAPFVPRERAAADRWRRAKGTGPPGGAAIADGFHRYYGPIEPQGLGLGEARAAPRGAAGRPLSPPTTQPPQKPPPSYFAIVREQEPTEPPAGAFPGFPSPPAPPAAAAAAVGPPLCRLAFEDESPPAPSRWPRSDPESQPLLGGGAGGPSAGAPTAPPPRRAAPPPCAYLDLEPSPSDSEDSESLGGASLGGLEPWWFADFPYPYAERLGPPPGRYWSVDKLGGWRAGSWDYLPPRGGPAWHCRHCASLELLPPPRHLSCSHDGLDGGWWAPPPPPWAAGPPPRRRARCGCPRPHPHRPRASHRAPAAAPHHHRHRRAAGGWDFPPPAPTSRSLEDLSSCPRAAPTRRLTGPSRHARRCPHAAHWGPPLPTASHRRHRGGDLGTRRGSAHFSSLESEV

For `NC(C(=O)O)c1ccnn1O` (racemic) [Compound 3a, (RS)-2-(N-hydroxypyrazol-5-yl)glycine], the negative-log Ki (pKi) is 5.00 on NMDA receptors (read-out: Ki [3H]CGP39653, rat cortical synaptosomes, ref Clausen et al 14) and < 4.00 on AMPA receptors [1]. In addition, the “Ki [3H]KA” value on KA receptors [2] is >100 µM.
Turning to `CCCc1cnn(O)c1[C@@H](N)C(=O)O` [Compound 3b], the negative-log Ki (pKi) on AMPA receptors [1] was < 4.00. In addition, the “Ki [3H]KA” value at KA receptors [2] is >100 µM.
`CC[C@]1(C(=O)O)C[C@H]1[C@H](N)C(=O)O.Cl` [Compound 4c, (1S,2R)-2-((S)-amino(carboxy)methyl)-1-ethylcyclopropanecarboxylic acid hydrochloride]: at GluN1/GluN2D, the “fold more potent at GluN2D compared to GluN2A” value stood at 15 fold.
Take `CCCC[C@]1(C(=O)O)C[C@H]1[C@H](N)C(=O)O.Cl` [Compound 4e, (1S,2R)-2-((S)-amino(carboxy)methyl)-1-butylcyclopropanecarboxylic acid hydrochloride]: the “binding to KA receptors” value in the test on KA receptors [3] was “not binding”. In addition, the “binding to AMPA receptors” value with AMPA receptors [4] is “not binding”.
Turning to `CCCC(=CC(N)C(=O)O)CP(=O)(O)O` (stereo not shown) [[^3H]CGP 39653], the pKd on NMDA receptors (read-out: Kd of radioligand, radioligand used at 2 nM) is 8.22.
In the case of `C=C(C)[C@H]1CN[C@H](C(=O)O)[C@H]1CC(=O)O` [[^3H]KA, kainic acid], the pKd on KA receptors [2] (read-out: Kd of radioligand, radioligand used at 5 nM) was 8.25.
